target: KDM5B (Homo sapiens (Human), UniProt Q9UGL1); experiment: KDM5B TR-FRET Enzyme Activity Assay; format: biochemical; conditions: LANCE TR-FRET; 5 nM full-length recombinant KDM5B; ten point titration 100000 nM to 5.08 nM
Experimental: KDM5B TR-FRET Enzyme Activity Assay
KDM5B enzymatic activity was determined with the LANCE (Lanthanide Chelate Excite) TR-FRET (Time-resolved fluorescence resonance energy transfer) assay. […] To each well of a white Greiner 1536 Lumitrac 1536 well-plate, 50 nL of compound (100 fold dilution in final assay volume of 5 μL) was dispensed, followed by the addition of 4 μL of 1× assay buffer (50 mM Hepes 7.3, 0.5 mM TCEP, 0.005% Brij-35, 0.02% BSA, 50 μM Na-L-Ascorbate and 2 μM AmFe(II)Sulfate) containing 5 nM of Full-length KDM5B enzyme (recombinant protein from baculovirus-transfected Sf21 cells: full-length KDM5B; MW=176.825 kDa). Following a 30 minutes compound and enzyme incubation in a humidified chamber, each reaction was initiated by the addition of 1 μL 1× assay buffer containing […] biotinylated H3K4Me3 peptide, and 500 nM α-ketoglutarate. The final reaction in each well of 5 μL consists of 5 nM KDM5B, 500 nM biotinylated-peptide, and 500 nM α-ketoglutarate. De-methylation reactions were allowed to proceed for 60 minutes. Reactions were immediately quenched by the addition of 5 uL of 2× Lance Detection Buffer (PerkinElmer) with 0.5 mM EDTA and 2 nM of Eu-anti-H3K4Me1-2 antibody, and 30 nM of Streptavidin-conjugated Dylight 650 detection reagents. After 60 minutes incubation with detection reagents, reaction plates were read on a PerkinElmer EnVision plate reader using standard TR-FRET protocol. Briefly, excitation of donor molecules (Eu-chelate-anti-H3K4Me1-2-antibody) with a laser light source at 337 nm produces energy that can be transferred to Dylight-650 acceptor molecules if this donor:acceptor pair is within close proximity. Fluorescence intensity at both 665 nm (acceptor) and 615 nm (donor) are measured and a TR-FRET ratio calculated for each well (acceptor intensity/donor intensity). IC50 values were determined by 4 parameter robust fit of TR-FRET ratio values vs. (Log 10) compound concentrations.

Chain of KDM5B (Q9UGL1 whole entry): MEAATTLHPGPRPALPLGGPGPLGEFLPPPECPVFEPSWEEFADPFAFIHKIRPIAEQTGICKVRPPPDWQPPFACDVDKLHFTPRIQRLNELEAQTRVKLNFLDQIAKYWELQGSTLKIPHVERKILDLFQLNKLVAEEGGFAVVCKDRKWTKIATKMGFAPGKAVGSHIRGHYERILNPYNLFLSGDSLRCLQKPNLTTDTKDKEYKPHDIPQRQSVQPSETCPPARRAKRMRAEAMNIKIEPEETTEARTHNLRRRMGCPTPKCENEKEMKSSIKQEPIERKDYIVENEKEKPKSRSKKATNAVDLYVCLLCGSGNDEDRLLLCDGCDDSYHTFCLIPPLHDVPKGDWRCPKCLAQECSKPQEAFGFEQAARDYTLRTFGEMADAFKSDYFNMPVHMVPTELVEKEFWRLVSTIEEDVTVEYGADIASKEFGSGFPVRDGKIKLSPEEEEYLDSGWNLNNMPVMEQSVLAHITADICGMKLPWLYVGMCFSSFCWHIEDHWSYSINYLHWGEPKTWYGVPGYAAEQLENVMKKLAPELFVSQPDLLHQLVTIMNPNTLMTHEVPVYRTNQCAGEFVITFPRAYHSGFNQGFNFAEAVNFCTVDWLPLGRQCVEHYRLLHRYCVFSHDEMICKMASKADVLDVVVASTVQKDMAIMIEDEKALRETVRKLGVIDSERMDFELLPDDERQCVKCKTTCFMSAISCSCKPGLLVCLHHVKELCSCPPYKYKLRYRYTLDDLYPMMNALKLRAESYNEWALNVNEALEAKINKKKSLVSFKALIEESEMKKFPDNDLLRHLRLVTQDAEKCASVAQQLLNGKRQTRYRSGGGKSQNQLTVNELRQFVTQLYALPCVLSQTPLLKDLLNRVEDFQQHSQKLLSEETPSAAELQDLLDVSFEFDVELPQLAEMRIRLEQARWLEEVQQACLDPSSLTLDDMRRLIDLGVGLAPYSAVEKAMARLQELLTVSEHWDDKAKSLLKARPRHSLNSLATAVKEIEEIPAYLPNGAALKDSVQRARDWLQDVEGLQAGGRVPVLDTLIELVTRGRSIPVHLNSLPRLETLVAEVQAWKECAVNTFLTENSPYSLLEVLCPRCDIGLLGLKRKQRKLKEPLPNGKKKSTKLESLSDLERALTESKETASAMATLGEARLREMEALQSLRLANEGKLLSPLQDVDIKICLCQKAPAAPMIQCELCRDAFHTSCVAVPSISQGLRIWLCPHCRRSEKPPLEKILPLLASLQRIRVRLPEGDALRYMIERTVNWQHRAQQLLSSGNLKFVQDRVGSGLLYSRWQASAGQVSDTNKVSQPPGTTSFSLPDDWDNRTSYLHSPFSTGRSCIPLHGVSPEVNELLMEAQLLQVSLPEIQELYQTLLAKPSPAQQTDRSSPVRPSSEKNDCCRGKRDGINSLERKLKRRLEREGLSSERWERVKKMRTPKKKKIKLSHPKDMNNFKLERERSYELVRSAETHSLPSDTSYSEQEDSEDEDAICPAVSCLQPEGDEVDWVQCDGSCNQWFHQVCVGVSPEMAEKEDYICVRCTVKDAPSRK

IC50	Compound
6.93 nM	CC(C)c1c(-c2cnn(CCS(C)(=O)=O)c2)[nH]c2ncnn2c1=O [Example 11-47, 6-(1-methylethyl)-5-{1-[2-(methylsulfonyl)ethyl]-1H-pyrazol-4-yl}[1,2,4]triazolo[1,5-a]pyrimidin-7(4H)-one]
16.8 nM	CC(C)c1c(-c2ccc(CN3CCCCC3)cc2)[nH]c2ncnn2c1=O [Example 11-48, 6-(1-methylethyl)-5-[4-(piperidin-1-ylmethyl)phenyl][1,2,4]triazolo[1,5-a]pyrimidin-7(4H)-one]
33.2 nM	CC(C)c1c(-c2cccc(CN3CCCCC3)c2)[nH]c2ncnn2c1=O [Example 11-49, 6-(1-methylethyl)-5-[3-(piperidin-1-ylmethyl)phenyl][1,2,4]triazolo[1,5-a]pyrimidin-7(4H)-one]
20.1 nM	CC(C)c1c(-c2ccc(C(O)C(F)(F)F)cc2)[nH]c2ncnn2c1=O (stereo not drawn) [Example 11-50, 6-(1-methylethyl)-5-[4-(2,2,2-trifluoro-1-hydroxyethyl)-phenyl][1,2,4]triazolo[1,5-a]pyrimidin-7(4H)-one]
9.66 nM	CC(C)c1c(-c2cnn(-c3cccc(Cl)c3)c2)[nH]c2ncnn2c1=O [Example 11-51, 5-[1-(3-chlorophenyl)-1H-pyrazol-4-yl]-6-(1-methylethyl)[1,2,4]triazolo[1,5-a]pyrimidin-7(4H)-one]
6.96 nM	CC(C)c1c(-c2cnn(CCN3CCOCC3)c2)[nH]c2ncnn2c1=O [Example 11-52, 6-(1-methylethyl)-5-[1-(2-morpholin-4-ylethyl)-1H-pyrazol-4-yl][1,2,4]triazolo[1,5-a]pyrimidin-7(4H)-one]
75.1 nM	CC(C)c1c(-c2cnn3c2CCCC3)[nH]c2ncnn2c1=O [Example 11-53, 6-(1-methylethyl)-5-(4,5,6,7-tetrahydropyrazolo[1,5-a]pyridin-3-yl)[1,2,4]triazolo[1,5-a]pyrimidin-7(4H)-one]
31.4 nM	CC(C)c1c(-c2cccc(C(O)C(F)(F)F)c2)[nH]c2ncnn2c1=O (stereo not drawn) [Example 11-54, 6-(1-methylethyl)-5-[3-(2,2,2-trifluoro-1-hydroxyethyl)phenyl][1,2,4]triazolo[1,5-a]pyrimidin-7(4H)-one]
9.45 nM	CC(C)c1c(/C=C/c2ccccc2)[nH]c2ncnn2c1=O [Example 11-55, 6-(1-methylethyl)-5-[(E)-2-phenylethenyl][1,2,4]triazolo[1,5-a]pyrimidin-7(4H)-one]
110 nM	CC(C)c1c(C2=CCC(C#N)CC2)[nH]c2ncnn2c1=O (stereo not drawn) [Example 11-56]
55.4 nM	COc1cccc(-c2[nH]c3ncnn3c(=O)c2C(C)C)c1 [Example 11-57, 5-(3-methoxyphenyl)-6-(1-methylethyl) [1,2,4]triazolo[1,5-a]pyrimidin-7(4H)-one]
37.3 nM	COc1ccc(-c2[nH]c3ncnn3c(=O)c2C(C)C)cc1 [Example 11-58, 5-(4-methoxyphenyl)-6-(1-methylethyl) [1,2,4]triazolo[1,5-a]pyrimidin-7(4H)-one]
26.5 nM	CC(C)c1c(-c2cccc(CO)c2)[nH]c2ncnn2c1=O [Example 11-59, 5-[3-(hydroxymethyl)phenyl]-6-(1-methylethyl)[1,2,4]triazolo[1,5-a]pyrimidin-7(4H)-one]
13.5 nM	CC(C)c1c(-c2ccc(CO)cc2)[nH]c2ncnn2c1=O [Example 11-60, 5-[4-(hydroxymethyl)phenyl]-6-(1-methylethyl)[1,2,4]triazolo[1,5-a]pyrimidin-7(4H)-one]
2170 nM	Cc1nn(C)c(C)c1-c1[nH]c2ncnn2c(=O)c1C(C)C [Example 11-61, 6-(1-methylethyl)-5-(1,3,5-trimethyl-1H-pyrazol-4-yl)[1,2,4]triazolo[1,5-a]pyrimidin-7(4H)-one]
1030 nM	CC(C)c1c(C2=CCC(C)(C)CC2)[nH]c2ncnn2c1=O [Example 11-62, 5-(4,4-dimethylcyclohex-1-en-1-yl)-6-(1-methylethyl)[1,2,4]triazolo[1,5-a]pyrimidin-7(4H)-one]
71.5 nM	CC(C)c1c(-c2ccc(Cl)cc2)[nH]c2ncnn2c1=O [Example 11-63, 5-(4-chlorophenyl)-6-(1-methylethyl)[1,2,4]triazolo[1,5-a]pyrimidin-7(4H)-one]
91.8 nM	CC(C)c1c(-c2cccc(Cl)c2)[nH]c2ncnn2c1=O [Example 11-64, 5-(3-chlorophenyl)-6-(1-methylethyl)[1,2,4]triazolo[1,5-a]pyrimidin-7(4H)-one]

IC50	Compound
3360 nM	CC(C)c1c(-c2ccccc2Cl)[nH]c2ncnn2c1=O [Example 11-65, 5-(2-chlorophenyl)-6-(1-methylethyl)[1,2,4]triazolo[1,5-a]pyrimidin-7(4H)-one]
8.93 nM	CC(C)c1c(-c2cccc(CC#N)c2)[nH]c2ncnn2c1=O [Example 11-66, {3-[6-(1-methylethyl)-7-oxo-4,7-dihydro[1,2,4]triazolo[1,5-a]pyrimidin-5-yl]phenyl}acetonitrile]
18.2 nM	CC(C)c1c(-c2ccc(CC#N)cc2)[nH]c2ncnn2c1=O [Example 11-67, {4-[6-(1-methylethyl)-7-oxo-4,7-dihydro[1,2,4]triazolo[1,5-a]pyrimidin-5-yl]phenyl}acetonitrile]
20 nM	CC(C)c1c(-c2cnc3[nH]ccc3c2)[nH]c2ncnn2c1=O [Example 11-68, 6-(1-methylethyl)-5-(1H-pyrrolo[2,3-b]pyridin-5-yl)[1,2,4]triazolo[1,5-a]pyrimidin-7(4H)-one]
25.8 nM	CC(C)c1c(-c2ccc3nccn3c2)[nH]c2ncnn2c1=O [Example 11-69, 5-imidazo[1,2-a]pyridin-6-yl-6-(1-methylethyl)[1,2,4]triazolo[1,5-a]pyrimidin-7(4H)-one]
13.5 nM	CC(C)c1c(-c2ccc3nc[nH]c3c2)[nH]c2ncnn2c1=O [Example 11-70, 5-(1H-benzimidazol-6-yl)-6-(1-methylethyl)[1,2,4]triazolo[1,5-a]pyrimidin-7(4H)-one]
208 nM	CC(C)c1c(-c2cccc3[nH]ncc23)[nH]c2ncnn2c1=O [Example 11-71, 5-(1H-indazol-4-yl)-6-(1-methylethyl)[1,2,4]triazolo[1,5-a]pyrimidin-7(4H)-one]
20.1 nM	CC(C)c1c(-c2cnn3ncccc23)[nH]c2ncnn2c1=O [Example 11-72, 6-(1-methylethyl)-5-pyrazolo[1,5-b]pyridazin-3-yl[1,2,4]triazolo[1,5-a]pyrimidin-7(4H)-one]
27.2 nM	CC(C)c1c(-c2ccc3cccnc3c2)[nH]c2ncnn2c1=O [Example 11-73, 6-(1-methylethyl)-5-quinolin-7-yl[1,2,4]triazolo[1,5-a]pyrimidin-7(4H)-one]
14.7 nM	CC(C)c1c(-c2ccc3ncccc3c2)[nH]c2ncnn2c1=O [Example 11-74, 6-(1-methylethyl)-5-quinolin-6-yl[1,2,4]triazolo[1,5-a]pyrimidin-7(4H)-one]
904 nM	CC(C)c1c(-c2ccnc3ccccc23)[nH]c2ncnn2c1=O [Example 11-75, 6-(1-methylethyl)-5-quinolin-4-yl[1,2,4]triazolo[1,5-a]pyrimidin-7(4H)-one]
23.8 nM	CC(C)c1c(-c2cnc3ccccc3c2)[nH]c2ncnn2c1=O [Example 11-76, 6-(1-methylethyl)-5-quinolin-3-yl[1,2,4]triazolo[1,5-a]pyrimidin-7(4H)-one]
1260 nM	CC(C)c1c(-c2cc3ccccc3n2C)[nH]c2ncnn2c1=O [Example 11-77, 6-(1-methylethyl)-5-(1-methyl-1H-indol-2-yl)[1,2,4]triazolo[1,5-a]pyrimidin-7(4H)-one]
10.4 nM	CC(C)c1c(-c2ccc3c(cnn3C)c2)[nH]c2ncnn2c1=O [Example 11-78, 6-(1-methylethyl)-5-(1-methyl-1H-indazol-5-yl)[1,2,4]triazolo[1,5-a]pyrimidin-7(4H)-one]
19.4 nM	COC(=O)c1ccc(-c2[nH]c3ncnn3c(=O)c2C(C)C)cc1 [Example 11-79, methyl 4-[6-(1-methylethyl)-7-oxo-4,7-dihydro[1,2,4]triazolo[1,5-a]pyrimidin-5-yl]benzoate]
34.2 nM	COC(=O)c1cccc(-c2[nH]c3ncnn3c(=O)c2C(C)C)c1 [Example 11-80, methyl 3-[6-(1-methylethyl)-7-oxo-4,7-dihydro[1,2,4]triazolo[1,5-a]pyrimidin-5-yl]benzoate]
306 nM	CC(C)c1c(C2=CC(C)(C)OC(C)(C)C2)[nH]c2ncnn2c1=O [Example 11-81, 6-(1-methylethyl)-5-(2,2,6,6-tetramethyl-3,6-dihydro-2H-pyran-4-yl)[1,2,4]triazolo[1,5-a]pyrimidin-7(4H)-one]
8.78 nM	CC(C)c1c(-c2ccc(-n3cccn3)cc2)[nH]c2ncnn2c1=O [Example 11-82, 6-(1-methylethyl)-5-[4-(1H-pyrazol-1-yl)phenyl][1,2,4]triazolo[1,5-a]pyrimidin-7(4H)-one]
